Measurements published in US20230081426A1, “COMPOUNDS AND METHODS FOR KRAS MODULATION AND INDICATIONS THEREFOR” (Plexxikon Inc., priority 2020, published 2023).

How the values were obtained:
[1] = molecular target: T1, G12D-mutant human KRAS (amino acid residues 1-188) (Homo sapiens, UniProt P01116, G12D); test: KRAS Binding Disruption Assay (AlphaScreen; biotinylated KRpep-2d analogue or RAF1-RBD), G12D; settings: KRAS G12D; geometric mean; read-out: KRAS GMean IC50 (uM) MUTATION: G12D
T1 construct: G12D or G12C-mutant human KRAS (amino acid residues 1-188) with FLAG tag; made in house; host or cells: E. coli
How it was run: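 AlphaScreen readout: signal falls as compound displaces biotinylated KRpep-2d analogue or RAF1-RBD from mutant KRAS. Both partners at 5-20 nM, 1 h binding at 25° C, then 10 μg/mL Anti-Flag acceptor and streptavidin donor beads for 1 h. IC50 by nonlinear regression of % inhibition.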

[2] = molecular target: T2, G12V-mutant human KRAS (amino acid residues 1-188) (Homo sapiens, UniProt P01116, G12V); test: KRAS Binding Competition Assay (AlphaScreen; biotinylated KRpep-2d analogue), G12V; settings: geometric mean, read-out: KRAS GMean IC50 (uM) MUTATION: G12V
T2 construct: G12V-mutant human KRAS (amino acid residues 1-188) with FLAG tag was purified from E. coli; made in house; host or cells: E. coli

Row | SMILES | IC50 [1] [µM] | IC50 [2] [µM]
1 | CN1CCC[C@H]1COc1nc(N2[C@@H]3CC[C@H]2CN(C(=O)CCC2CCNCC2)C3)c2ccc(-c3cc(O)cc4ccccc34)cc2n1 [P-0193, 1-((1R,5S)-8-(7-(3-hydroxynaphthalen-1-yl)-2-(((S)-1-methylpyrrolidin-2-yl)methoxy)quinazolin-4-yl)-3,8-diazabicyclo[3.2.1]octan-3-yl)-3-(piperidin-4-yl)propan-1-one] | 10 to 100 | 10 to 100
2 | CN1CCC[C@H]1COc1nc(N2C[C@H]3CC[C@@H](C2)N3)c2ccc(-c3cnn4ccccc34)cc2n1 [P-0178, 4-((1R,5S)-3,8-diazabicyclo[3.2.1]octan-3-yl)-2-(((S)-1-methylpyrrolidin-2-yl)methoxy)-7-(pyrazolo[1,5-a]pyridin-3-yl)quinazoline] | 100 to 1000 | 100 to 1000
3 | CN1CCC[C@H]1COc1nc(N2C[C@H]3CC[C@@H](C2)N3)c2ccc(-c3csc4ccccc34)cc2n1 [P-0154, 7-(benzo[b]thiophen-3-yl)-4-((1R,5S)-3,8-diazabicyclo[3.2.1]octan-3-yl)-2-(((S)-1-methylpyrrolidin-2-yl)methoxy)quinazoline] | 10 to 100 | 10 to 100
4 | CN1CCC[C@H]1COc1nc(N2C[C@H]3CC[C@@H](C2)N3)c2ccc(-c3ccc4c(c3)NC(=O)CO4)cc2n1 [P-0159, 6-(4-((1R,5S)-3,8-diazabicyclo[3.2.1]octan-3-yl)-2-(((S)-1-methylpyrrolidin-2-yl)methoxy)quinazolin-7-yl)-2H-benzo[b][1,4]oxazin-3(4H)-one] | 100 to 1000 | 100 to 1000
5 | CNC(=O)CCOc1nc(N2C[C@H]3CC[C@@H](C2)N3)c2ccc(-c3cc(O)cc4ccccc34)c(F)c2n1 [P-0616, 3-((4-((1R,5S)-3,8-diazabicyclo[3.2.1]octan-3-yl)-8-fluoro-7-(3-hydroxynaphthalen-1-yl)quinazolin-2-yl)oxy)-N-methylpropanamide] | 0.0001 to 10 | 10 to 100
6 | CN1CCC[C@H]1COc1nc(N2[C@@H]3CC[C@H]2CNC3)c2ccc(-c3c(N)cccc3Cl)cc2n1 [P-0300, 2-(4-((1R,5S)-3,8-diazabicyclo[3.2.1]octan-8-yl)-2-(((S)-1-methylpyrrolidin-2-yl)methoxy)quinazolin-7-yl)-3-chloroaniline] | 10 to 100 | 10 to 100
7 | CN1CCC[C@H]1COc1nc(N2C[C@H]3CC[C@@H](C2)N3)c2ccc(-c3c(O)ccc4ccccc34)cc2n1 [P-0338, 1-(4-((1R,5S)-3,8-diazabicyclo[3.2.1]octan-3-yl)-2-(((S)-1-methylpyrrolidin-2-yl)methoxy)quinazolin-7-yl)naphthalen-2-ol] | 0.0001 to 10 | 10 to 100
8 | CN1CCC[C@H]1COc1nc(N2C[C@H]3CC[C@@H](C2)N3)c2ccc(-c3cccc4[nH]ncc34)cc2n1 [P-0171, 4-((1R,5S)-3,8-diazabicyclo[3.2.1]octan-3-yl)-7-(1H-indazol-4-yl)-2-(((S)-1-methylpyrrolidin-2-yl)methoxy)quinazoline] | 100 to 1000 | 100 to 1000
9 | O=C(CN1[C@@H]2CC[C@H]1CN(c1nc(OCC34CCCN3CCC4)nc3cc(-c4cc(O)cc5ccccc45)ccc13)C2)C1CCNCC1 [P-0138, 2-((1R,5S)-3-(7-(3-hydroxynaphthalen-1-yl)-2-((tetrahydro-1H-pyrrolizin-7a(5H)-yl)methoxy)quinazolin-4-yl)-3,8-diazabicyclo[3.2.1]octan-8-yl)-1-(piperidin-4-yl)ethan-1-one] | 0.0001 to 10 | 0.0001 to 10
10 | CN1CCC[C@H]1COc1nc(N2[C@@H]3CC[C@H]2CNC3)c2ccc(-c3c(F)ccc(N)c3F)cc2n1 [P-0288, 3-(4-((1R,5S)-3,8-diazabicyclo[3.2.1]octan-8-yl)-2-(((S)-1-methylpyrrolidin-2-yl)methoxy)quinazolin-7-yl)-2,4-difluoroaniline] | 10 to 100 | 10 to 100
11 | Cc1cccc2c1N(c1ccc3c(N4C[C@H]5CC[C@@H](C4)N5)nc(OC[C@@H]4CCCN4C)nc3c1F)CCC2 [P-0435, 4-((1R,5S)-3,8-diazabicyclo[3.2.1]octan-3-yl)-8-fluoro-7-(8-methyl-3,4-dihydroquinolin-1(2H)-yl)-2-(((S)-1-methylpyrrolidin-2-yl)methoxy)quinazoline] | 0.0001 to 10 | 10 to 100
12 | CN1CCN(CCCS(=O)(=O)N2[C@@H]3CC[C@H]2CN(c2nc(OCC45CCCN4CCC5)nc4c(F)c(-c5cc(O)cc6ccccc56)ccc24)C3)CC1 [P-0203, 4-(8-fluoro-4-((1R,5S)-8-((3-(4-methylpiperazin-1-yl)propyl)sulfonyl)-3,8-diazabicyclo[3.2.1]octan-3-yl)-2-((tetrahydro-1H-pyrrolizin-7a(5H)-yl)methoxy)quinazolin-7-yl)naphthalen-2-ol] | 0.0001 to 10 | 0.0001 to 10
13 | O=C([C@@H]1CCNC1)N1[C@@H]2CC[C@H]1CN(c1nc(OCC34CCCN3CCC4)nc3cc(-c4cc(O)cc5ccccc45)ccc13)C2 [P-0111, ((1R,5S)-3-(7-(3-hydroxynaphthalen-1-yl)-2-((tetrahydro-1H-pyrrolizin-7a(5H)-yl)methoxy)quinazolin-4-yl)-3,8-diazabicyclo[3.2.1]octan-8-yl)((R)-pyrrolidin-3-yl)methanone] | 0.0001 to 10 | 0.0001 to 10
14 | CONC(=O)N1C[C@H]2CC[C@@H](C1)N2c1nc(OC[C@@H]2CCCN2C)nc2cc(-c3cc(O)cc4ccccc34)ccc12 [P-0214, (1R,5S)-8-(7-(3-hydroxynaphthalen-1-yl)-2-(((S)-1-methylpyrrolidin-2-yl)methoxy)quinazolin-4-yl)-N-methoxy-3,8-diazabicyclo[3.2.1]octane-3-carboxamide] | 10 to 100 | 10 to 100
15 | Oc1cc(-c2ccc3c(N4[C@@H]5CC[C@H]4CNC5)nc(CCc4cccnc4)nc3c2)c2ccccc2c1 [P-0241, 4-(4-((1R,5S)-3,8-diazabicyclo[3.2.1]octan-8-yl)-2-(2-(pyridin-3-yl)ethyl)quinazolin-7-yl)naphthalen-2-ol] | 0.0001 to 10 | 0.0001 to 10
16 | Cc1c(N)cccc1-c1ccc2c(N3[C@@H]4CC[C@H]3CNC4)nc(OC[C@@H]3CCCN3C)nc2c1 [P-0286, 3-(4-((1R,5S)-3,8-diazabicyclo[3.2.1]octan-8-yl)-2-(((S)-1-methylpyrrolidin-2-yl)methoxy)quinazolin-7-yl)-2-methylaniline] | 10 to 100 | 10 to 100

Second part, the compound after the results:

Row | IC50 [1] [µM] | IC50 [2] [µM] | SMILES
17 | 0.0001 to 10 | 10 to 100 | CN1CCC[C@H]1COc1nc(N2[C@@H]3CC[C@H]2CN(CC(=O)N2CCNCC2)C3)c2ccc(-c3cc(O)cc4ccccc34)cc2n1 [P-0269, 2-((1R,5S)-8-(7-(3-hydroxynaphthalen-1-yl)-2-(((S)-1-methylpyrrolidin-2-yl)methoxy)quinazolin-4-yl)-3,8-diazabicyclo[3.2.1]octan-3-yl)-1-(piperazin-1-yl)ethan-1-one]
18 | 0.0001 to 10 | 0.0001 to 10 | Fc1cc2c(N3C[C@H]4CC[C@@H](C3)N4)nc(OCC34CCCN3CCC4)nc2c(F)c1-c1c[nH]c2ccc(Cl)c(F)c12 [P-0441, 4-((1R,5S)-3,8-diazabicyclo[3.2.1]octan-3-yl)-7-(5-chloro-4-fluoro-1H-indol-3-yl)-6,8-difluoro-2-((tetrahydro-1H-pyrrolizin-7a(5H)-yl)methoxy)quinazoline]
19 | 0.0001 to 10 | 10 to 100 | CN1CCC[C@H]1COc1nc(N2[C@@H]3CC[C@H]2CN(CC(O)CO)C3)c2ccc(-c3cc(O)cc4ccccc34)cc2n1 (stereo partly drawn) [P-0272, 3-((1R,5S)-8-(7-(3-hydroxynaphthalen-1-yl)-2-(((S)-1-methylpyrrolidin-2-yl)methoxy)quinazolin-4-yl)-3,8-diazabicyclo[3.2.1]octan-3-yl)propane-1,2-diol]
20 | 0.0001 to 10 | 0.0001 to 10 | Oc1cc(-c2ccc3c(N4[C@@H]5CC[C@H]4CNC5)nc(Cc4ccncc4)nc3c2)c2ccccc2c1 [P-0301, 4-(4-((1R,5S)-3,8-diazabicyclo[3.2.1]octan-8-yl)-2-(pyridin-4-ylmethyl)quinazolin-7-yl)naphthalen-2-ol]
21 | 0.0001 to 10 | 0.0001 to 10 | CN(C)CCCS(=O)(=O)N1[C@@H]2CC[C@H]1CN(c1nc(OCC34CCCN3CCC4)nc3c(F)c(-c4cc(O)cc5ccccc45)ccc13)C2 [P-0287, 4-(4-((1R,5S)-8-((3-(dimethylamino)propyl)sulfonyl)-3,8-diazabicyclo[3.2.1]octan-3-yl)-8-fluoro-2-((tetrahydro-1H-pyrrolizin-7a(5H)-yl)methoxy)quinazolin-7-yl)naphthalen-2-ol]
22 | 0.0001 to 10 | 10 to 100 | CN1CCC[C@H]1COc1nc(N2C[C@H]3CC[C@@H](C2)N3)c2ccc(-c3c(O)cccc3Cl)cc2n1 [P-0342, 2-(4-((1R,5S)-3,8-diazabicyclo[3.2.1]octan-3-yl)-2-(((S)-1-methylpyrrolidin-2-yl)methoxy)quinazolin-7-yl)-3-chlorophenol]
23 | 0.0001 to 10 | 10 to 100 | CN1CCC[C@H]1COc1nc(N2C[C@H]3CC[C@@H](C2)N3)c2cc(F)c(-c3c(O)cccc3F)c(F)c2n1 [P-0302, 2-(4-((1R,5S)-3,8-diazabicyclo[3.2.1]octan-3-yl)-6,8-difluoro-2-(((S)-1-methylpyrrolidin-2-yl)methoxy)quinazolin-7-yl)-3-fluorophenol]
24 | 0.0001 to 10 | 0.0001 to 10 | CN1C[C@H](F)C[C@H]1COc1nc(N2C[C@H]3CC[C@@H](C2)N3)c2ccc(-c3cc(O)cc4ccccc34)cc2n1 [P-0072, 4-(4-((1R,5S)-3,8-diazabicyclo[3.2.1]octan-3-yl)-2-(((2S,4R)-4-fluoro-1-methylpyrrolidin-2-yl)methoxy)quinazolin-7-yl)naphthalen-2-ol]
